Assay results: PMC8286840, “Identifying SARS-CoV-2 antiviral compounds by screening for small molecule inhibitors of Nsp3 papain-like protease” (Biochemical Journal, 2021)
Where a name gives a salt, the structure may show the parent alone. Read-outs that look alike come from different tables or passages of the source.

Key:
[1] = biological target: T1, SARS-CoV-2 PLpro (nsp3 1564–1878) (Severe acute respiratory syndrome coronavirus 2, UniProt P0DTD1); test: biochemical; set-up: FRET-quenched peptide (Pro3) cleavage by PLpro, 10 min pre-incubation, slope over 20 min, normalised to no-compound control; settings: read-out: % of control remaining
[2] = biological target: T1, SARS-CoV-2 PLpro (nsp3 1564–1878); test: biochemical; set-up: FRET-quenched peptide (Pro3) cleavage by PLpro, 10 min pre-incubation, slope over 20 min, normalised to no-compound control; settings: read-out: % of control remaining; remark: listed apart in the source

Structure (SMILES): CC(C)C[C@H]1C(=O)N2CCC[C@H]2[C@]2(O)O[C@](NC(=O)[C@@H]3C=C4c5cccc6[nH]c(Br)c(c56)C[C@H]4N(C)C3)(C(C)C)C(=O)N12 [Bromocriptine (mesylate)]
- remaining activity at 1.25 µM ([1]; Well no.=6891, low concentration screen): 97.5%
- remaining activity at 3.75 µM ([2]; Well no.=6891, high concentration screen): 96.2%

Structure (SMILES): CC(C)C[C@H]1C(=O)N2CCC[C@H]2[C@]2(O)O[C@](NC(=O)[C@@H]3C=C4c5cccc6[nH]c(Br)c(c56)C[C@H]4N(C)C3)(C(C)C)C(=O)N12 [Bromocriptine mesylate]
- remaining activity at 1.25 µM ([1]; Well no.=1811, low concentration screen): 92.4%
- remaining activity at 1.25 µM ([1]; Well no.=3485, low concentration screen): 104%
- remaining activity at 3.75 µM ([2]; Well no.=1811, high concentration screen): 91.6%
- remaining activity at 3.75 µM ([2]; Well no.=3485, high concentration screen): 101%

Structure (SMILES): O=C1O/C(=C/Br)CCC1c1cccc2ccccc12 (centres unmarked) [Bromoenol lactone]
- remaining activity at 1.25 µM ([1]; Well no.=310, low concentration screen): 93%
- remaining activity at 3.75 µM ([2]; Well no.=310, high concentration screen): 96.9%

Structure (SMILES): CN(C)CCC(c1ccc(Br)cc1)c1ccccn1 (centres unmarked) [Brompheniramine (maleate)]
- remaining activity at 1.25 µM ([1]; Well no.=7377, low concentration screen): 102%
- remaining activity at 3.75 µM ([2]; Well no.=7377, high concentration screen): 105%

Structure (SMILES): CN(C)CCC(c1ccc(Br)cc1)c1ccccn1 (centres unmarked) [Brompheniramine]
- remaining activity at 1.25 µM ([1]; Well no.=5292, low concentration screen): 99%
- remaining activity at 3.75 µM ([2]; Well no.=5292, high concentration screen): 96.1%

Structure (SMILES): COc1cc2c(cc1OC)[C@@]13CC[N+]4([O-])CC5=CCO[C@H]6CC(=O)N2[C@H]1[C@H]6[C@H]5C[C@@H]34 (some centres unmarked) [Brucine-N-oxide]
- remaining activity at 1.25 µM ([1]; Well no.=3270, low concentration screen): 99.2%
- remaining activity at 3.75 µM ([2]; Well no.=3270, high concentration screen): 102%

Structure (SMILES): CCCC1O[C@@H]2C[C@H]3[C@@H]4CCC5=CC(=O)C=C[C@]5(C)[C@H]4[C@@H](O)C[C@]3(C)[C@]2(C(=O)CO)O1 (some centres unmarked) [Budesonide]
- remaining activity at 1.25 µM ([1]; Well no.=81, low concentration screen): 105%
- remaining activity at 1.25 µM ([1]; Well no.=6659, low concentration screen): 98.6%
- remaining activity at 3.75 µM ([2]; Well no.=81, high concentration screen): 102%
- remaining activity at 3.75 µM ([2]; Well no.=6659, high concentration screen): 98.7%

Structure (SMILES): CCCCOc1ccc(CC(=O)NO)cc1 [Bufexamac]
- remaining activity at 1.25 µM ([1]; Well no.=5265, low concentration screen): 101%
- remaining activity at 3.75 µM ([2]; Well no.=5265, high concentration screen): 99.5%

Structure (SMILES): COc1cc(OC)c(C(=O)CCCN2CCCC2)c(OC)c1 [Buflomedil HCl]
- remaining activity at 1.25 µM ([1]; Well no.=5296, low concentration screen): 101%
- remaining activity at 3.75 µM ([2]; Well no.=5296, high concentration screen): 97.4%

Structure (SMILES): CCCCNc1cc(C(=O)O)cc(S(N)(=O)=O)c1Oc1ccccc1 [Bumetanide]
- remaining activity at 1.25 µM ([1]; Well no.=29, low concentration screen): 103%
- remaining activity at 1.25 µM ([1]; Well no.=1909, low concentration screen): 100%
- remaining activity at 3.75 µM ([2]; Well no.=29, high concentration screen): 96.8%
- remaining activity at 3.75 µM ([2]; Well no.=1909, high concentration screen): 99.1%

Structure (SMILES): CCCCN1CCCCC1C(=O)Nc1c(C)cccc1C (centres unmarked) [Bupivacaine]
- remaining activity at 1.25 µM ([1]; Well no.=2052, low concentration screen): 105%
- remaining activity at 3.75 µM ([2]; Well no.=2052, high concentration screen): 103%

Structure (SMILES): CC(NC(C)(C)C)C(=O)c1cccc(Cl)c1 (centres unmarked) [Bupropion hydrochloride]
- remaining activity at 1.25 µM ([1]; Well no.=37, low concentration screen): 101%
- remaining activity at 3.75 µM ([2]; Well no.=37, high concentration screen): 100%

Structure (SMILES): CCNC(=O)[C@@H]1CCCN1C(=O)[C@H](CCCNC(=N)N)NC(=O)[C@H](CC(C)C)NC(=O)[C@@H](COC(C)(C)C)NC(=O)[C@H](Cc1ccc(O)cc1)NC(=O)[C@H](CO)NC(=O)[C@H](Cc1c[nH]c2ccccc12)NC(=O)[C@H](Cc1cnc[nH]1)NC(=O)[C@@H]1CCC(=O)N1 [Buserelin (Acetate)]
- remaining activity at 1.25 µM ([1]; Well no.=8151, low concentration screen): 106%
- remaining activity at 3.75 µM ([2]; Well no.=8151, high concentration screen): 104%

Structure (SMILES): O=C1CC2(CCCC2)CC(=O)N1CCCCN1CCN(c2ncccn2)CC1 [Buspirone (hydrochloride)]
- remaining activity at 1.25 µM ([1]; Well no.=8249, low concentration screen): 101%
- remaining activity at 3.75 µM ([2]; Well no.=8249, high concentration screen): 99.1%

Structure (SMILES): O=C1CC2(CCCC2)CC(=O)N1CCCCN1CCN(c2ncccn2)CC1 [Buspirone hydrochloride]
- remaining activity at 1.25 µM ([1]; Well no.=319, low concentration screen): 98.2%
- remaining activity at 3.75 µM ([2]; Well no.=319, high concentration screen): 99.4%

Structure (SMILES): O=C(/C=C/c1ccc(O)c(O)c1)c1ccc(O)cc1O [Butein]
- remaining activity at 1.25 µM ([1]; Well no.=3272, low concentration screen): 96.3%
- remaining activity at 3.75 µM ([2]; Well no.=3272, high concentration screen): 97.5%

Structure (SMILES): CN(Cc1ccc(C(C)(C)C)cc1)Cc1cccc2ccccc12 [Butenafine HCl]
- remaining activity at 1.25 µM ([1]; Well no.=5371, low concentration screen): 98.1%
- remaining activity at 3.75 µM ([2]; Well no.=5371, high concentration screen): 97.8%

Structure (SMILES): CN(Cc1ccc(C(C)(C)C)cc1)Cc1cccc2ccccc12 [Butenafine]
- remaining activity at 1.25 µM ([1]; Well no.=1876, low concentration screen): 97.2%
- remaining activity at 3.75 µM ([2]; Well no.=1876, high concentration screen): 94.3%

Structure (SMILES): CCCCS(=N)(=O)CCC(N)C(=O)O (centres unmarked) [Buthionine sulfoximine]
- remaining activity at 1.25 µM ([1]; Well no.=4086, low concentration screen): 101%
- remaining activity at 3.75 µM ([2]; Well no.=4086, high concentration screen): 100%

Structure (SMILES): Clc1ccc(CCC(Cn2ccnc2)Sc2c(Cl)cccc2Cl)cc1 (centres unmarked) [Butoconazole nitrate]
- remaining activity at 1.25 µM ([1]; Well no.=2204, low concentration screen): 96.3%
- remaining activity at 3.75 µM ([2]; Well no.=2204, high concentration screen): 93.9%

Structure (SMILES): CCCC(=O)OCC[N+](C)(C)C [Butyrylcholine]
- remaining activity at 1.25 µM ([1]; Well no.=1738, low concentration screen): 103%
- remaining activity at 3.75 µM ([2]; Well no.=1738, high concentration screen): 100%

Structure (SMILES): CN1C(=O)C(Cc2ccc3ccccc3c2)N=C(c2ccc(O)cc2)c2cc(Cl)ccc21 (centres unmarked) [Bz 423]
- remaining activity at 1.25 µM [1]: 96.5%
- remaining activity at 3.75 µM [2]: 93.6%

Structure (SMILES): CCCCCCCCCCCCC/C=C/[C@@H](O)[C@H](CO)NC(C)=O [C2 Ceramide]
- remaining activity at 1.25 µM ([1]; Well no.=4363, low concentration screen): 108%
- remaining activity at 3.75 µM ([2]; Well no.=4363, high concentration screen): 104%

Structure (SMILES): CCCCCCCCCCCCCC[C@@H](O)[C@@H](O)[C@@H](CO)NC(C)=O [C2 Phytoceramide]
- remaining activity at 1.25 µM ([1]; Well no.=3531, low concentration screen): 99.2%
- remaining activity at 3.75 µM ([2]; Well no.=3531, high concentration screen): 104%

Structure (SMILES): CCCCCCCCCCCCC/C=C/[C@@H](O)[C@H](CO)NC(=O)CCCCC [C6 Ceramide]
- remaining activity at 1.25 µM ([1]; Well no.=3123, low concentration screen): 100%
- remaining activity at 3.75 µM ([2]; Well no.=3123, high concentration screen): 101%

Structure (SMILES): CCCCCCCCCCCCC/C=C/[C@@H](O)[C@H](CO)NC(=O)CCCCCCC [C8 Ceramide]
- remaining activity at 1.25 µM ([1]; Well no.=4255, low concentration screen): 100%
- remaining activity at 3.75 µM ([2]; Well no.=4255, high concentration screen): 99.1%

Structure (SMILES): CCCCCCCCCCCCC/C=C/[C@@H](O)[C@H](CO)NCCCCCCCC [C8 Ceramine]
- remaining activity at 1.25 µM ([1]; Well no.=4409, low concentration screen): 101%
- remaining activity at 3.75 µM ([2]; Well no.=4409, high concentration screen): 95.2%

Structure (SMILES): CCCCCCCCCCCCCCC[C@@H](O)[C@H](CO)NC(=O)CCCCCCC [C8 Dihydroceramide]
- remaining activity at 1.25 µM ([1]; Well no.=4395, low concentration screen): 99.8%
- remaining activity at 3.75 µM ([2]; Well no.=4395, high concentration screen): 99.1%

Structure (SMILES): CCCCCCCCCCCCC/C=C/[C@@H](O)[C@H](CO)NC(=O)CCCCCCCCCCCCCCC [C16 Ceramide]
- remaining activity at 1.25 µM ([1]; Well no.=4397, low concentration screen): 101%
- remaining activity at 3.75 µM ([2]; Well no.=4397, high concentration screen): 101%

Structure (SMILES): CC1=NN(c2ccc(C(=O)O)cc2)C(=O)/C1=C\c1ccc(-c2cc(C)c(C)cc2[N+](=O)[O-])o1 [C646]
- remaining activity at 1.25 µM ([1]; Well no.=5456, low concentration screen): 98.3%
- remaining activity at 3.75 µM ([2]; Well no.=5456, high concentration screen): 101%

Structure (SMILES): CCCNC(=O)[C@H]1O[C@@H]1C(=O)N[C@H](C(=O)N1CCC[C@H]1C(=O)OC)[C@@H](C)CC [CA-074 methyl ester]
- remaining activity at 1.25 µM ([1]; Well no.=8166, low concentration screen): 105%
- remaining activity at 3.75 µM ([2]; Well no.=8166, high concentration screen): 100%

Structure (SMILES): CCCNC(=O)[C@H]1O[C@@H]1C(=O)N[C@H](C(=O)N1CCC[C@H]1C(=O)O)[C@@H](C)CC [CA-074]
- remaining activity at 1.25 µM ([1]; Well no.=8272, low concentration screen): 104%
- remaining activity at 3.75 µM ([2]; Well no.=8272, high concentration screen): 101%

Structure (SMILES): O=C1/C(=C/c2ccc(O)c(Br)c2)CN(Cc2ccccc2)C/C1=C\c1ccc(O)c(Br)c1 [CARM1-IN-1]
- remaining activity at 1.25 µM ([1]; Well no.=8030, low concentration screen): 94.4%
- remaining activity at 3.75 µM ([2]; Well no.=8030, high concentration screen): 88%

Structure (SMILES): OCCNC1CCCc2c1[nH]c1ccc(-c3ccccc3)cc21 (centres unmarked) [CASIN]
- remaining activity at 1.25 µM ([1]; Well no.=7373, low concentration screen): 102%
- remaining activity at 3.75 µM ([2]; Well no.=7373, high concentration screen): 105%
